Data from patent publication US10168342B2, “Lipid probes and uses thereof” (THE SCRIPPS RESEARCH INSTITUTE, priority 2015, dated 2019).
Where two headings read alike, the source gives them in different places.

Legend:
[1] = biological target: T1, AEA-DA lipid probe targets in Neuro2a cells (Mus musculus, UniProt P32037)
T1 sequence (P32037 1-493): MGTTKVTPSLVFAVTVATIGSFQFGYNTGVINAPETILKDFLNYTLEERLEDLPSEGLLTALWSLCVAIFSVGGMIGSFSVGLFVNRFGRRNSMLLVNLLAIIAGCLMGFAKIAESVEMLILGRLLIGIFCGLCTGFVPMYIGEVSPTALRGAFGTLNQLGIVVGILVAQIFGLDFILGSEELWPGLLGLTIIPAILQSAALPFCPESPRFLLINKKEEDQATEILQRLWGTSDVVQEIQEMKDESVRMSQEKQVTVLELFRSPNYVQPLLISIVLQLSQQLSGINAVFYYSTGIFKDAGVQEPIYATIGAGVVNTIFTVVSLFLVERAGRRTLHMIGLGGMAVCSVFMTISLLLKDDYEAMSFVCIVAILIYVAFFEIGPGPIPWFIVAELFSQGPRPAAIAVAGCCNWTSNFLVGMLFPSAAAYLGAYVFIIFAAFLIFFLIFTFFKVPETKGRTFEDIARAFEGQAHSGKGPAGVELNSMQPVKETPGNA

[2] = biological target: AEA-DA lipid probe targets in Neuro2a cells (Mus musculus, UniProt P20152)
Sequence of AEA-DA lipid probe targets in Neuro2a cells (Mus musculus, UniProt P20152) (P20152 whole entry): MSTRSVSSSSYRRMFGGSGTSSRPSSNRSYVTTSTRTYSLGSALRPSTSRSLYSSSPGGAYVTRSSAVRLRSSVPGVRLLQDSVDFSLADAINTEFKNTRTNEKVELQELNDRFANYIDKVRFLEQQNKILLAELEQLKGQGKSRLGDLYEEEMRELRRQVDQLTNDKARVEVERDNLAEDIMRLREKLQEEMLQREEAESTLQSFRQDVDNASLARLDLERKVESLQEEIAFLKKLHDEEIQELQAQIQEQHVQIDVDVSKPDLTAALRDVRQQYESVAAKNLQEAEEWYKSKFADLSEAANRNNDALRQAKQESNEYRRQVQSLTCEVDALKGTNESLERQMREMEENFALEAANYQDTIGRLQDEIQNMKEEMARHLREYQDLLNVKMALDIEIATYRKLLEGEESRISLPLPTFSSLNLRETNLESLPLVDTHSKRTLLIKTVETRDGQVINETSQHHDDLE

[3] = biological target: T2, AEA-DA lipid probe targets in Neuro2a cells (Mus musculus, UniProt Q8BTV1)
T2 sequence (Q8BTV1 42-347): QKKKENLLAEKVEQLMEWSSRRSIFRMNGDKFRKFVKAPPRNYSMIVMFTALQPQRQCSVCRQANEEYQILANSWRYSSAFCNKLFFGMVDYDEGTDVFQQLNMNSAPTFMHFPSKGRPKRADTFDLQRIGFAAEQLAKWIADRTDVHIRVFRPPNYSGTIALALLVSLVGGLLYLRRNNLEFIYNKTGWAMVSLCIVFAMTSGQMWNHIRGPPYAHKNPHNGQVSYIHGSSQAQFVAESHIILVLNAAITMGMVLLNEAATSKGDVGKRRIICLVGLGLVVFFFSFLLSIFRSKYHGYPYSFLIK

[4] = biological target: T3, AEA-DA lipid probe targets in Neuro2a cells (Mus musculus, UniProt Q8C3X8)
T3 sequence (Q8C3X8 1-702): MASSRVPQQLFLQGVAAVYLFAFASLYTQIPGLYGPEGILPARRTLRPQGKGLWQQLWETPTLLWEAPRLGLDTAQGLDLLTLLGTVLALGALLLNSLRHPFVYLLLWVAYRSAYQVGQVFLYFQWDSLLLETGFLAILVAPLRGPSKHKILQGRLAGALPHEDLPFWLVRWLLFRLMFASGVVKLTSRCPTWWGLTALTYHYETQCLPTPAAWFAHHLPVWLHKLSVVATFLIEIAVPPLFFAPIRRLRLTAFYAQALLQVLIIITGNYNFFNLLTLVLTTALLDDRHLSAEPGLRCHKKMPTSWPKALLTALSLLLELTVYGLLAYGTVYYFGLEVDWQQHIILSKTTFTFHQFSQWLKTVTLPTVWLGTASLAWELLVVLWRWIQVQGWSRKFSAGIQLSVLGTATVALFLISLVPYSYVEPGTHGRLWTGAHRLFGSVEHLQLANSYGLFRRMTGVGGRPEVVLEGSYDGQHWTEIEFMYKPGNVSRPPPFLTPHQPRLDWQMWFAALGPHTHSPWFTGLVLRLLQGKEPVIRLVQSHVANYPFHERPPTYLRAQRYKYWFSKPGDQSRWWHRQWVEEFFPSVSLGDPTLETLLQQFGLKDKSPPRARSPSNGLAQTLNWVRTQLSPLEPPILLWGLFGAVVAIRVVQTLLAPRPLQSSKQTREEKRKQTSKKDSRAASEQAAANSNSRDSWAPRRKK

[5] = biological target: T4, AEA-DA lipid probe targets in Neuro2a cells (Mus musculus, UniProt Q61009)
T4 sequence (Q61009 1-509): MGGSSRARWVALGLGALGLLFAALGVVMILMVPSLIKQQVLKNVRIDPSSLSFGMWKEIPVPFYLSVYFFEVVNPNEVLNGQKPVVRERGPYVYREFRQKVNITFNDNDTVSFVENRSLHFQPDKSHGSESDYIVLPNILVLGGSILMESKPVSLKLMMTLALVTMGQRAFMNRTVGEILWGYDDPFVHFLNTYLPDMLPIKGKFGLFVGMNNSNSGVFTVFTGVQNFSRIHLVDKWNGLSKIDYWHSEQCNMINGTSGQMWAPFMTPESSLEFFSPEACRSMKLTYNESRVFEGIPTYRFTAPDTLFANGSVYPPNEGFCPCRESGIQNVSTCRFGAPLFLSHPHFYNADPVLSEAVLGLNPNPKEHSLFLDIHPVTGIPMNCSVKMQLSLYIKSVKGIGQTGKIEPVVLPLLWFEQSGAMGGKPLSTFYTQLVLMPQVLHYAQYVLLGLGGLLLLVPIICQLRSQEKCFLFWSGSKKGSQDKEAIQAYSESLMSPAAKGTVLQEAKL

[6] = biological target: T5, AEA-DA lipid probe targets in Neuro2a cells (Mus musculus, UniProt Q8CFE6)
T5 sequence (Q8CFE6 1-504): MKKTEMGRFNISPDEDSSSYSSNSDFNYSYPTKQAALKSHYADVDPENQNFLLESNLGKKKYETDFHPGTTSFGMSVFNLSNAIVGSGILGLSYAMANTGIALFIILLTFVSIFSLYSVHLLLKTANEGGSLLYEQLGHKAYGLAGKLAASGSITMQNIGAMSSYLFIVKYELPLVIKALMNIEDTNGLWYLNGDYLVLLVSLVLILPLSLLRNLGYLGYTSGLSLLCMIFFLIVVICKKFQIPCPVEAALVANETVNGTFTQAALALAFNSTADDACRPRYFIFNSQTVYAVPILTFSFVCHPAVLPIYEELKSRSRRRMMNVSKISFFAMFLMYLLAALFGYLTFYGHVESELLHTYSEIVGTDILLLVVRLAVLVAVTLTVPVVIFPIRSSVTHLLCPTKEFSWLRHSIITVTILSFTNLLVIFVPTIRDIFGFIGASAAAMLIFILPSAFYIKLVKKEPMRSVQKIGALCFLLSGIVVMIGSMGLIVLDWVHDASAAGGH

CCCCC/C=C\C/C=C\C/C=C\C/C=C\CCCC(=O)NCCO [AEA, anandamide, reference compound]
SILAC ratio, Slc2a3 ([1]; competitor 200 μM): 1.0 | SILAC ratio Vim ([2]; competitor 200 μM): 0.9 | SILAC ratio, Tusc3 ([3]; competitor 200 μM): 1.7 | SILAC ratio Lmf2 ([4]; competitor 200 μM): 1.9 | SILAC ratio, Scarb1 ([5]; competitor 200 μM): 1.6 | SILAC ratio Slc38a2 ([6]; competitor 200 μM): 1.5

O=C(/C=C/c1cccnc1)NCCCCC1CCN(C(=O)c2ccccc2)CC1 [FK-866, reference compound]
SILAC ratio, Slc2a3 ([1]; competitor 25 μM): 1.1 | SILAC ratio Vim ([2]; competitor 25 μM): 1.2 | SILAC ratio, Tusc3 ([3]; competitor 25 μM): 1.3 | SILAC ratio Lmf2 ([4]; competitor 25 μM): 1.2 | SILAC ratio, Scarb1 ([5]; competitor 25 μM): 2.3 | SILAC ratio Slc38a2 ([6]; competitor 25 μM): 1.0

CN1CCN(C(=O)c2c(-c3ccccc3)c3cc([N+](=O)[O-])ccc3n2C)CC1 [KML110, (1-Methyl-5-nitro-3-phenyl-1H-indol-2-yl)(4-methylpiperazin-1-yl)methanone]
SILAC ratio, Slc2a3 ([1]; competitor 25 μM): 1.2 | SILAC ratio Vim ([2]; competitor 25 μM): 1.2 | SILAC ratio, Tusc3 ([3]; competitor 25 μM): 1.6 | SILAC ratio Lmf2 ([4]; competitor 25 μM): 1.7 | SILAC ratio, Scarb1 ([5]; competitor 25 μM): 2.8 | SILAC ratio Slc38a2 ([6]; competitor 25 μM): 1.2

CN1CCN(C(=O)c2[nH]c3ccc([N+](=O)[O-])cc3c2-c2ccccc2)CC1 [MJN228, (4-Methylpiperazin-1-yl)(5-nitro-3-phenyl-1H-indol-2-yl)methanone]
SILAC ratio, Slc2a3 ([1]; competitor 10 μM): 1.2 | SILAC ratio, Slc2a3 ([1]; competitor 25 μM): 1.4 | SILAC ratio, Slc2a3 ([1]; competitor 50 μM): 1.2 | SILAC ratio, Slc2a3 ([1]; competitor 100 μM): 1.2 | SILAC ratio Vim ([2]; competitor 10 μM): 1.2 | SILAC ratio Vim ([2]; competitor 25 μM): 1.2 | SILAC ratio Vim ([2]; competitor 50 μM): 0.9 | SILAC ratio Vim ([2]; competitor 100 μM): 1.0 | SILAC ratio, Tusc3 ([3]; competitor 10 μM): 1.2 | SILAC ratio, Tusc3 ([3]; competitor 25 μM): 1.6 | SILAC ratio, Tusc3 ([3]; competitor 50 μM): 1.6 | SILAC ratio, Tusc3 ([3]; competitor 100 μM): 2.6 | SILAC ratio Lmf2 ([4]; competitor 10 μM): 1.5 | SILAC ratio Lmf2 ([4]; competitor 25 μM): 1.7 | SILAC ratio Lmf2 ([4]; competitor 50 μM): 2.0 | SILAC ratio Lmf2 ([4]; competitor 100 μM): 2.5 | SILAC ratio, Scarb1 ([5]; competitor 10 μM): 1.6 | SILAC ratio, Scarb1 ([5]; competitor 25 μM): 2.0 | SILAC ratio, Scarb1 ([5]; competitor 50 μM): 3.2 | SILAC ratio, Scarb1 ([5]; competitor 100 μM): 4.9 | SILAC ratio Slc38a2 ([6]; competitor 10 μM): 1.2 | SILAC ratio Slc38a2 ([6]; competitor 25 μM): 1.3 | SILAC ratio Slc38a2 ([6]; competitor 100 μM): 1.2

C=CCN(C)CCCCCCOc1ccc(C(=O)c2ccc(Br)cc2)c(F)c1 [Ro 48-8071, reference compound]
SILAC ratio, Slc2a3 ([1]; competitor 25 μM): 1.0 | SILAC ratio Vim ([2]; competitor 25 μM): 0.8 | SILAC ratio, Tusc3 ([3]; competitor 25 μM): 1.2 | SILAC ratio Lmf2 ([4]; competitor 25 μM): 1.3 | SILAC ratio, Scarb1 ([5]; competitor 25 μM): 2.9 | SILAC ratio Slc38a2 ([6]; competitor 25 μM): 0.7
